What was measured:
CYP2C9 = target: T1, CYP2C9 (Homo sapiens, UniProt P11712); assay: Cytochrome P450 isozyme inhibitory activity test, CYP2C9; assay type: in vitro ADME; details: liver microsomes; human liver microsome
T1 construct: from tissue; host or cells: human liver microsomes
Description: (§1) The inhibitory activities of the test compound on different subtypes of human cytochrome P450 isozymes were determined. The test compound, standard inhibitor (100× final concentration), and a mixed substrate working solution were prepared; the microsome frozen in −80° C. refrigerator was thawed. […]

TrkA = target: T2, TrkA (Homo sapiens, UniProt P04629); assay: TrkA enzyme activity test (HTRF); assay type: biochemical; details: 0.5 nM TrkA kinase, 90 μM ATP, 23° C. 90 minutes
T2 construct: purchased Invitrogen PV4114
T2 sequence (P04629 33-796): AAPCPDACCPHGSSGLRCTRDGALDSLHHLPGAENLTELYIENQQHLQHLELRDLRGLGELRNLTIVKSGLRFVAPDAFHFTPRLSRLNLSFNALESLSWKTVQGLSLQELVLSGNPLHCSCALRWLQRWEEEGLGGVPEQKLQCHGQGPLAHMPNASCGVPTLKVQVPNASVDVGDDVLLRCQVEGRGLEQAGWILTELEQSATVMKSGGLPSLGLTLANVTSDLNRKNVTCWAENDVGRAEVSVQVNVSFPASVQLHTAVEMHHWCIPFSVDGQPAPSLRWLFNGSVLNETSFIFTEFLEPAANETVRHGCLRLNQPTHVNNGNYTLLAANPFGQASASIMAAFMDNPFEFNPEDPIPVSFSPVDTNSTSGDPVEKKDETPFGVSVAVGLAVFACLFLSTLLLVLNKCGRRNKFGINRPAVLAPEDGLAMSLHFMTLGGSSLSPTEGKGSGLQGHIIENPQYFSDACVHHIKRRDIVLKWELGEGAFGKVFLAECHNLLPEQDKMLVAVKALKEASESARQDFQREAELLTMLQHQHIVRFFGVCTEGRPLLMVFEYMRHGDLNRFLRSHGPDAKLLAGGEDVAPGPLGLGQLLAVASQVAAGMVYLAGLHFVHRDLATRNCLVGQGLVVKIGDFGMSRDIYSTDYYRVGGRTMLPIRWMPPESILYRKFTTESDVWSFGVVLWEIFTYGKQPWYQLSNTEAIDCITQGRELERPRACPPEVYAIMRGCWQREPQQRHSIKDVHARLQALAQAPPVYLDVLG
Description: TK detection kit Cisbio-62TK0PEJ
50 mM Hepes (pH 7.5), 5 mM MgCl2 (magnesium chloride), 0.01 mM orthovanadate (sodium vanadate), 1% BSA (bovine serum albumin), 1 mM (dithiothreitol)
This experiment used Cisbio's homogeneous time-resolved fluorescence resonance energy transfer (HTRF® method) for activity test. In the test plate, the enzyme, biotin-labeled peptide substrate, ATP, and test compound were mixed, and incubated for reaction. After the reaction, ethylenediaminetetraacetic acid was added to terminate the reaction; at the same time, Eu-labeled antibody and streptavidin-labeled XL665 were added for reaction and detection. The data were expressed by the readings of the fluorescence signal at 665 nm and 620 nm, where a high ratio of 665 nm/620 nm indicated higher activity, and a low ratio of 665 nm/620 nm indicated inhibition of activity.
1. […]
2. […] 10 μL of stop solution containing 20 mM EDTA, 1.34 nM phosphorylated substrate antibody, and 100 nM streptavidin-labeled fluorescent molecule XL-665 was then added, incubated at 23° C. for 60 minutes; the signal was read with Envision;
3. The inhibition rate of the compound was calculated from the data read by the instrument, and the IC50 value was calculated using the mode 205 in XLFIT5 of IDBS.

CYP2D6 = target: T3, CYP2D6 (Homo sapiens, UniProt P10635); assay: Cytochrome P450 isozyme inhibitory activity test, CYP2D6; assay type: in vitro ADME; details: liver microsomes; human liver microsome
T3 construct: from tissue; host or cells: human liver microsomes
T3 sequence (P10635 whole entry): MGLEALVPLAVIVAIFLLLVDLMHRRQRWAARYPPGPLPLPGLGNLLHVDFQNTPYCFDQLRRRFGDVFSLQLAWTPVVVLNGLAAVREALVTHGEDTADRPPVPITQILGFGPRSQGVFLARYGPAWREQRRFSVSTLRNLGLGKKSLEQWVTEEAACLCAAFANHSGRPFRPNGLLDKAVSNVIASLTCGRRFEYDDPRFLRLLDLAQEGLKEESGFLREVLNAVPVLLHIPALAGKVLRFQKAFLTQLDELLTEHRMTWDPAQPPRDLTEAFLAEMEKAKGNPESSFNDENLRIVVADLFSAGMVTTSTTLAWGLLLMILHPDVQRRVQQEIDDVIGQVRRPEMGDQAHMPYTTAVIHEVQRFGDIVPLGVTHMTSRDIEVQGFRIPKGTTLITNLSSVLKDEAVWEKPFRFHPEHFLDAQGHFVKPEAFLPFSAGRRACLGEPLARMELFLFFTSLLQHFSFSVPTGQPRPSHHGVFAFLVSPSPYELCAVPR
Description: as §1

[1] = In vivo pharmacokinetic study in mice after single administration; design: species or system CD-1 mice; details: male, CD-1, mouse, plasma
Description: Male CD-1 mice were used as test animals, the concentration of the compound in blood was determined after single administration to evaluate the pharmacokinetic behavior.
CD-1 mice (male, 20-40 g, 6-9 weeks, Shanghai Sippr-Bk Laboratory Animal Co., Ltd.)
The pharmacokinetic characteristics of the test compound in rodents after intravenous injection and oral administration were tested by standard protocols, in the experiment, the test compound was prepared into a clear solution or homogeneous suspension, and administered to the mice by single intravenous injection and oral administration. In the intravenous injection group, the menstruum was a certain proportion of ethanol, Cremophor EL and physiological saline solution, the mixture was vortexed to prepare 1 mg/mL clear solution, then filtered with microporous membrane for later use; in the oral administration group, the menstruum was a certain proportion of methyl cellulose solution or certain proportion of methyl cellulose and Tween 80 aqueous solution, the test compound was mixed with the menstruum, and the mixture was vortexed to prepare 10 mg/mL clear or homogeneous suspension for later use. After 2 mg/kg intravenous administration or 100 mg/kg oral administration to the mice, a certain amount of whole blood samples were collected, centrifuged at 3200 g for 10 minutes, the supernatant was separated to obtain the plasma samples, and the samples were diluted multiple times with blank plasma according to actual needs. The plasma sample was added to acetonitrile solution containing the internal standard with a volume 20 times that of the plasma sample to precipitate proteins, and then centrifuged; the supernatant was separated, and water with a volume twice that of the supernatant was added to the supernatant, which was then centrifuged again; the supernatant was collected for analysis; LC-MS/MS analysis method was used to quantitatively analyze the blood drug concentration, and Phoenix WinNonlin software (Pharsight, USA) was used to calculate the pharmacokinetic parameters, such as peak concentration, time to peak concentration, clearance rate, half-life, area under the concentration-time curve, bioavailability, etc.
Among them, C0 is the initial concentration, T1/2 is the elimination half-life, Vdss is the steady-state apparent volume of distribution, Cl is the total clearance rate, AUC0-inf is the area under the plasma drug concentration-time curve from time 0 to infinity, Cmax is the peak concentration, Tmax is the time to peak concentration.

[2] = 2 mg/kg, 2 mpk intravenous injection
[3] = 100 mg/kg, 100 mpk oral administration

T1 sequence (P11712 whole entry): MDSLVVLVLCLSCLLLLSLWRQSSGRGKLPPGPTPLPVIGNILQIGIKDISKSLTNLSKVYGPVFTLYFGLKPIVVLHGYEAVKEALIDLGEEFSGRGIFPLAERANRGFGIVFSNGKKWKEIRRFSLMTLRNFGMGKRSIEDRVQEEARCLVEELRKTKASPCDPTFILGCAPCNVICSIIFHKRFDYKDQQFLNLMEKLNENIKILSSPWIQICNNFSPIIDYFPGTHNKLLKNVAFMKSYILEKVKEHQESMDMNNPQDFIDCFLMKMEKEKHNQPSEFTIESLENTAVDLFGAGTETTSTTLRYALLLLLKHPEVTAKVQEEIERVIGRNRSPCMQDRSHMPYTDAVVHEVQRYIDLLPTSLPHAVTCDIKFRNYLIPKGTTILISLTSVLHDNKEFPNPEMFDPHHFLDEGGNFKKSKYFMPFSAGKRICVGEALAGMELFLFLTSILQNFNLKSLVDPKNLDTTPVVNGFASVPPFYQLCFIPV

IC50 at 10 min (CYP2C9): 39.1 µM
IC50 (TrkA): 0.00056 µM
IC50 at 10 min (CYP2D6): 40.6 µM
AUC(0-inf) [1, 2]: 1.44 µM·h
C0 [1, 2]: 2.72 µM
clearance [1, 2]: 41.7 mL/min/kg
half-life [1, 2]: 34.2 min
Vd ([1]; 2 mg/kg, 2 mpk intravenous injection, read-out: Vdss): 1.54 L/kg
AUC(0-inf) [1, 3]: 37.6 µM·h
Cmax [1, 3]: 25.6 µM
Tmax [1, 3]: 22.8 min
bioavailability [1, 3]: 52.2%
half-life [1, 3]: 55.2 min
Structure (SMILES): COCCN1C[C@@H](n2ccc(F)c2)[C@H](NC(=O)Nc2c(C)c(-c3cnc(C4(F)COC4)nc3)nn2-c2ccccc2)C1 [Compound of formula (I)]

Reference: patent US11708357B2, “Crystal form of pyrrolidinyl urea derivative and application thereof” (ZHANGZHOU PIEN TZE HUANG PHARMACEUTICAL CO., LTD., priority 2020, dated 2023)
